# Test results: PubChem BioAssay (NCI)
#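 Growth conditions: 96-well plates. Treatment: test compound, 48 hours, 5 concentrations. Analysis: linear interpolation between bracketing concentrations; unreached endpoints set to highest concentration. The concentration for full growth arrest is given as TGI.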
# Tests used:
# Assay in all cases: NCI anticancer screen, dose series, 48 h
# 786-0 renal = test system: 786-0 renal
# A549 NSCLC = test system: A549 NSCLC
# ACHN renal = test system: ACHN renal
# CAKI-1 renal = test system: CAKI-1 renal
# CCRF-CEM leukemia = test system: CCRF-CEM leukemia
# COLO 205 colon = test system: COLO 205 colon
# DLD-1 colon = test system: DLD-1 colon
# DMS 114 small cell lung = test system: DMS 114 small cell lung
# DMS 273 small cell lung = test system: DMS 273 small cell lung
# EKVX NSCLC = test system: EKVX NSCLC
# HCC-2998 colon = test system: HCC-2998 colon
# HCT-116 colon = test system: HCT-116 colon
# HCT-15 colon = test system: HCT-15 colon
# HL-60(TB) leukemia = test system: HL-60(TB) leukemia
# HOP-18 NSCLC = test system: HOP-18 NSCLC
# HOP-62 NSCLC = test system: HOP-62 NSCLC
# HOP-92 NSCLC = test system: HOP-92 NSCLC
# HT29 colon = test system: HT29 colon
# IGROV1 ovarian = test system: IGROV1 ovarian
# K-562 leukemia = test system: K-562 leukemia
# KM12 colon = test system: KM12 colon
# KM20L2 colon = test system: KM20L2 colon
# LOX IMVI melanoma = test system: LOX IMVI melanoma
# LXFL 529 NSCLC = test system: LXFL 529 NSCLC
# M14 melanoma = test system: M14 melanoma
# M19-MEL melanoma = test system: M19-MEL melanoma
# MALME-3M melanoma = test system: MALME-3M melanoma
# MOLT-4 leukemia = test system: MOLT-4 leukemia
# NCI-H226 lung = test system: NCI-H226 lung
# NCI-H23 lung = test system: NCI-H23 lung
# NCI-H460 lung = test system: NCI-H460 lung
# NCI-H522 lung = test system: NCI-H522 lung
# OVCAR-3 ovarian = test system: OVCAR-3 ovarian
# OVCAR-4 ovarian = test system: OVCAR-4 ovarian
# OVCAR-8 ovarian = test system: OVCAR-8 ovarian
# RPMI-8226 leukemia = test system: RPMI-8226 leukemia
# RXF 393 renal = test system: RXF 393 renal
# SF-268 CNS = test system: SF-268 CNS
# SF-295 CNS = test system: SF-295 CNS
# SF-539 CNS = test system: SF-539 CNS
# SK-MEL-2 melanoma = test system: SK-MEL-2 melanoma
# SK-MEL-28 melanoma = test system: SK-MEL-28 melanoma
# SK-MEL-5 melanoma = test system: SK-MEL-5 melanoma
# SK-OV-3 ovarian = test system: SK-OV-3 ovarian
# SN12C renal = test system: SN12C renal
# SNB-19 CNS = test system: SNB-19 CNS
# SNB-75 CNS = test system: SNB-75 CNS
# SNB-78 CNS = test system: SNB-78 CNS
# SW-620 colon = test system: SW-620 colon
# TK-10 renal = test system: TK-10 renal
# U251 CNS = test system: U251 CNS
# UACC-257 melanoma = test system: UACC-257 melanoma
# UACC-62 melanoma = test system: UACC-62 melanoma
# UO-31 renal = test system: UO-31 renal
# XF 498 CNS = test system: XF 498 CNS
# A498 renal = test system: A498 renal
# BT-549 breast = test system: BT-549 breast
# DU-145 prostate = test system: DU-145 prostate
# HS 578T breast = test system: HS 578T breast
# MCF7 breast = test system: MCF7 breast
# MDA-MB-231 breast = test system: MDA-MB-231 breast
# OVCAR-5 ovarian = test system: OVCAR-5 ovarian
# PC-3 prostate = test system: PC-3 prostate
# SR leukemia = test system: SR leukemia
# T-47D breast = test system: T-47D breast
smiles,measurement,setting,value
COc1cc2cc3c4c(cc(OC)c(OC)c4c2cc1OC)CCN3,TGI,786-0 renal,> 100 µM
same,TGI,A549 NSCLC,> 100 µM
same,TGI,ACHN renal,> 100 µM
same,TGI,CAKI-1 renal,> 100 µM
same,TGI,CCRF-CEM leukemia,77.2 µM
same,TGI,COLO 205 colon,63.2 µM
same,TGI,DLD-1 colon,73.8 µM
same,TGI,DMS 114 small cell lung,> 100 µM
same,TGI,DMS 273 small cell lung,> 100 µM
same,TGI,EKVX NSCLC,> 100 µM
same,TGI,HCC-2998 colon,> 100 µM
same,TGI,HCT-116 colon,> 100 µM
same,TGI,HCT-15 colon,> 100 µM
same,TGI,HL-60(TB) leukemia,42.3 µM
same,TGI,HOP-18 NSCLC,> 100 µM
same,TGI,HOP-62 NSCLC,> 100 µM
same,TGI,HOP-92 NSCLC,> 100 µM
same,TGI,HT29 colon,96.2 µM
same,TGI,IGROV1 ovarian,> 100 µM
same,TGI,K-562 leukemia,81.6 µM
same,TGI,KM12 colon,> 100 µM
same,TGI,KM20L2 colon,88.5 µM
same,TGI,LOX IMVI melanoma,> 100 µM
same,TGI,LXFL 529 NSCLC,> 100 µM
same,TGI,M14 melanoma,> 100 µM
same,TGI,M19-MEL melanoma,25.6 µM
same,TGI,MALME-3M melanoma,> 100 µM
same,TGI,MOLT-4 leukemia,> 100 µM
same,TGI,NCI-H226 lung,> 100 µM
same,TGI,NCI-H23 lung,> 100 µM
same,TGI,NCI-H460 lung,82.6 µM
same,TGI,NCI-H522 lung,> 100 µM
same,TGI,OVCAR-3 ovarian,> 100 µM
same,TGI,OVCAR-4 ovarian,> 100 µM
same,TGI,OVCAR-8 ovarian,> 100 µM
same,TGI,RPMI-8226 leukemia,68 µM
same,TGI,RXF 393 renal,85.8 µM
same,TGI,SF-268 CNS,> 100 µM
same,TGI,SF-295 CNS,> 100 µM
same,TGI,SF-539 CNS,51.1 µM
same,TGI,SK-MEL-2 melanoma,59.7 µM
same,TGI,SK-MEL-28 melanoma,> 100 µM
same,TGI,SK-MEL-5 melanoma,> 100 µM
same,TGI,SK-OV-3 ovarian,> 100 µM
same,TGI,SN12C renal,> 100 µM
same,TGI,SNB-19 CNS,> 100 µM
same,TGI,SNB-75 CNS,> 100 µM
same,TGI,SNB-78 CNS,> 100 µM
same,TGI,SW-620 colon,51.2 µM
same,TGI,TK-10 renal,> 100 µM
same,TGI,U251 CNS,> 100 µM
same,TGI,UACC-257 melanoma,> 100 µM
same,TGI,UACC-62 melanoma,19.5 µM
same,TGI,UO-31 renal,> 100 µM
same,TGI,XF 498 CNS,> 100 µM
COc1cc2c(c(OC)c1OC)-c1cccc(=O)cc1C(NC(C)=O)CC2 (stereo unspecified),TGI,786-0 renal,> 63.1 µM
same,TGI,A498 renal,14.7 µM
same,TGI,A549 NSCLC,> 100 µM
same,TGI,ACHN renal,> 100 µM
same,TGI,BT-549 breast,> 100 µM
same,TGI,CAKI-1 renal,> 100 µM
same,TGI,CCRF-CEM leukemia,> 100 µM
same,TGI,COLO 205 colon,1.79 µM
same,TGI,DMS 114 small cell lung,0.391 µM
same,TGI,DMS 273 small cell lung,> 100 µM
same,TGI,DU-145 prostate,> 100 µM
same,TGI,EKVX NSCLC,> 100 µM
same,TGI,HCC-2998 colon,> 13.6 µM
same,TGI,HCT-116 colon,25.6 µM
same,TGI,HCT-15 colon,> 100 µM
same,TGI,HL-60(TB) leukemia,0.472 µM
same,TGI,HOP-18 NSCLC,> 100 µM
same,TGI,HOP-62 NSCLC,> 39.6 µM
same,TGI,HOP-92 NSCLC,4.92 µM
same,TGI,HS 578T breast,> 100 µM
same,TGI,IGROV1 ovarian,> 100 µM
same,TGI,K-562 leukemia,> 100 µM
same,TGI,KM12 colon,1.75 µM
same,TGI,KM20L2 colon,1.86 µM
same,TGI,LOX IMVI melanoma,> 100 µM
same,TGI,LXFL 529 NSCLC,> 100 µM
same,TGI,M14 melanoma,> 67.8 µM
same,TGI,M19-MEL melanoma,> 100 µM
same,TGI,MALME-3M melanoma,> 100 µM
same,TGI,MCF7 breast,> 100 µM
same,TGI,MDA-MB-231 breast,> 100 µM
same,TGI,MOLT-4 leukemia,> 100 µM
same,TGI,NCI-H226 lung,14.8 µM
same,TGI,NCI-H23 lung,11.1 µM
same,TGI,NCI-H460 lung,3.47 µM
same,TGI,NCI-H522 lung,0.203 µM
same,TGI,OVCAR-3 ovarian,1.16 µM
same,TGI,OVCAR-4 ovarian,> 100 µM
same,TGI,OVCAR-5 ovarian,> 100 µM
same,TGI,OVCAR-8 ovarian,> 16.7 µM
same,TGI,PC-3 prostate,> 100 µM
same,TGI,RPMI-8226 leukemia,> 100 µM
same,TGI,RXF 393 renal,0.952 µM
same,TGI,SF-268 CNS,> 100 µM
same,TGI,SF-295 CNS,0.267 µM
same,TGI,SF-539 CNS,0.229 µM
same,TGI,SK-MEL-2 melanoma,> 24.8 µM
same,TGI,SK-MEL-28 melanoma,> 100 µM
same,TGI,SK-MEL-5 melanoma,3.16 µM
same,TGI,SN12C renal,> 100 µM
same,TGI,SNB-19 CNS,> 100 µM
same,TGI,SNB-78 CNS,> 100 µM
same,TGI,SR leukemia,> 100 µM
same,TGI,SW-620 colon,> 100 µM
same,TGI,T-47D breast,> 100 µM
same,TGI,TK-10 renal,> 100 µM
same,TGI,U251 CNS,> 100 µM
same,TGI,UACC-257 melanoma,> 100 µM
same,TGI,UACC-62 melanoma,> 100 µM
same,TGI,UO-31 renal,> 100 µM
same,TGI,XF 498 CNS,12.3 µM
